How the values were obtained:
Cathepsin [1] = biological target: T1, Cathepsin (Rattus norvegicus, UniProt P24268); assay: Rat PMNs cathepsin activity; format: cell-based; settings: pH 5; 5 × 10^-6 M, N=6; read-out: Rat PMNs Cathep.
T1 construct: azocasein assay pH 5.0
Source text: (§1) 2. PMNs-polymorphonuclear neutrophils-rat peritoneal cavity 0.5% oyster glycogen.
(§2) 2. Acid Cathepsin D -azocasein-pH 5.0, hydrolytic azo-peptide produce 366 nm.

Elastase [2] = assay: Mouse macrophage elastase activity; format: cell-based
cAMP = assay: PMNs cAMP levels, Gilman's radioimmune assay; format: cell-based, rat; settings: 5 × 10^-6 M, N=6
Source text: as §1
cAMP levels Gilman's radioimmune assay. ^3 H(G)Cyclic-3', 5'-adenosine monophosphate.

Cathepsin D [3] = biological target: T2, Cathepsin D (Mus musculus, UniProt P18242); assay: Mouse hepatic lysosomal cathepsin D activity; format: biochemical
T2 construct: azocasein assay pH 5.0
T2 sequence (P18242 65-410): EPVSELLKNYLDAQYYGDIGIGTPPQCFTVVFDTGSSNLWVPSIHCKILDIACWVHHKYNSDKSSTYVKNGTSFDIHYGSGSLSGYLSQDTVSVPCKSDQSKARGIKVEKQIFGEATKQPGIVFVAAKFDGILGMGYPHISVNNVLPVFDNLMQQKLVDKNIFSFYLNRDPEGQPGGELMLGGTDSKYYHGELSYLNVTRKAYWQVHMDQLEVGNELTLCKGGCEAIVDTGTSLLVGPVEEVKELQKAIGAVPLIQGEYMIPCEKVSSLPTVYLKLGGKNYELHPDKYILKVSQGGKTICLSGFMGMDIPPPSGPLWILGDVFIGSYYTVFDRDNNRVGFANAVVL
Source text: (§3) 1. Cf1 male mouse hepatic 10% homogenates in 0.25M sucrose+0.001MEDTA,pH 7.2.
(§4) Lysosomal Enzymes - free and total [triton X-100].
as §2
Cathepsin azo casein activity -

Cathepsin D [4] = biological target: T2, Cathepsin D; assay: Mouse macrophage cathepsin D activity; format: cell-based; settings: Table VII; mouse macrophage cultured cells, DMEM +10% FCS +P/S, 60 min incubation; read-out: Cathepsin D IC50
Source text: (§5) 3. Mouse macrophages J774A.1 BALB/c
as §2

Aryl sulphatase [5] = assay: Mouse macrophage aryl sulphatase activity; format: cell-based; settings: Table VII; mouse macrophage cultured cells, 60 min incubation; read-out: Aryl Sulphatase IC50
in vivo = settings: mouse, Table 1, N=6
Protocol: Amine borane compounds (0 to 100 mg/kg) were administered to CF1 male mice as a single injection with six mice for each dosage. Mice were weighed daily and the number of deaths was recorded each day for a 14 day period. The LD50 value was determined by the procedure of S.C. Gad and C.S. Weil, "Statistics for Toxicologists" in Principles and Methods of Toxicology, A.W. Hayes, Ed., 2nd Edition, P 435-483 Raven Press, New York 1982.

Acid phosphatase [6] = assay: Rat PMNs acid phosphatase activity; format: cell-based; settings: 5 × 10^-6 M, N=6; 5 µM
Source text: as §1
(§6) 1. Acid phosphatase -beta glycerol-3-phosphate, pH 5.0, released IP 720 nm.

[7] = tested on: Prostaglandin cyclooxygenase; assay: Mouse macrophage prostaglandin cyclooxygenase activity; format: cell-based
Source text: as §5
(§7) Prostaglandin synthetase purified beef seminal vesicle ^3 H arachidonic acid (86.2 Ci/mmol), tlc separation.

Sprague Dawley Rats = assay: Anti-inflammatory activity in Sprague Dawley rats; format: in vivo; settings: Table IV; 8 mg/kg I.P.
Acid phosphatase [8] = assay: Mouse macrophage acid phosphatase activity; format: cell-based
Cf1 male mice [9] = assay: Writhing reflex, 0.6% acetic acid; format: in vivo; design: response vs control in vivo: dose or concentration left out as unconfirmed
Sprague Dawley male rats = assay: Chronic adjuvant arthritis screen, Mycobacterium butyricum; format: in vivo; settings: Table 1; Indomethacin 10 mg/kg
Cf1 male mice [10] = assay: Anti-inflammatory screen, Winter's test, 2% carrageenan hind foot; format: in vivo
Protocol: Anti-inflammatory Screen- Cf1 - male mice-Winter's Test 2% carrageenan S.C. plantar surface of hind foot, drugs administered @8 or 10 mg/kg I.P. 2X
Winter, C.A., et al, Proc. Soc.

[11] = tested on: Hepatic oxidative phosphorylation; assay: Hepatic oxidative phosphorylation, Gilson oxygraph; format: biochemical, mouse; settings: 10^-6 M; 1 µM
Source text: as §3

Acid phosphatase [12] = assay: Mouse hepatic lysosomal acid phosphatase activity; format: biochemical; settings: 5 × 10^-6 M, N=6; 5 µM
Source text: as §3, §4, §6
Acid phosphatase activity -

Cf1 male mice [13] = assay: Writhing reflex, 0.6% acetic acid; format: in vivo; settings: Table 1; Indomethacin 10 mg/kg
Protocol: Writhing reflex- Cf1 -male mice- 0.6% acetic acid I.P. drugs administered @20 mg/kg/ I.P. 20 min. later - the # of stretches/10 min.
Hendershot, L.C., et al, J.

Trypsin [14] = assay: Mouse macrophage trypsin (BAEE) activity; format: cell-based
[15] = biological target: T3, Porcine Pancreatic Elastase (Sus scrofa, UniProt P00772); assay: Porcine pancreatic elastase activity in vitro; format: biochemical; settings: Table IX; commercial enzyme preparation
T3 construct: purchased; host or cells: porcine pancreas
T3 sequence (P00772 27-266): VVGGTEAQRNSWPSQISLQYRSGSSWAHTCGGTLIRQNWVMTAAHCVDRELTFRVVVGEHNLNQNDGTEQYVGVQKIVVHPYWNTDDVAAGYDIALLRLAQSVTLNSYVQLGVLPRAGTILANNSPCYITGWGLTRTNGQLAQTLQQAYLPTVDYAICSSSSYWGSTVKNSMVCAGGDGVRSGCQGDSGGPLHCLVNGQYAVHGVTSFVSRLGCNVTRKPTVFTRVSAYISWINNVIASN
Source text: (§8) 2. Elastase- N-succinyl-L-alanyl-L-alanine-p-nitroanilide, pH 8.0, p-nitro anilide 410 nm.

Hydroxyproline = assay: Serum and urine hydroxyproline levels in vivo; settings: Cf1 male mice, 8 mg/kg/day I.P. 14 days, N=6
Calcium = assay: Serum and urine calcium levels in vivo; settings: Cf1 male mice, 8 mg/kg/day I.P. 14 days, N=6
Prostaglandin synthetase = biological target: T4, Prostaglandin synthetase (Bos taurus, UniProt O62664); assay: Prostaglandin synthetase (cyclooxygenase), purified beef seminal vesicle; format: biochemical; settings: Table IX; commercial enzyme preparation; read-out: Beef Prostaglandin Cyclooxygenase IC50
T4 construct: Prostaglandin synthetase purified beef seminal vesicle; from tissue
T4 sequence (O62664 25-600): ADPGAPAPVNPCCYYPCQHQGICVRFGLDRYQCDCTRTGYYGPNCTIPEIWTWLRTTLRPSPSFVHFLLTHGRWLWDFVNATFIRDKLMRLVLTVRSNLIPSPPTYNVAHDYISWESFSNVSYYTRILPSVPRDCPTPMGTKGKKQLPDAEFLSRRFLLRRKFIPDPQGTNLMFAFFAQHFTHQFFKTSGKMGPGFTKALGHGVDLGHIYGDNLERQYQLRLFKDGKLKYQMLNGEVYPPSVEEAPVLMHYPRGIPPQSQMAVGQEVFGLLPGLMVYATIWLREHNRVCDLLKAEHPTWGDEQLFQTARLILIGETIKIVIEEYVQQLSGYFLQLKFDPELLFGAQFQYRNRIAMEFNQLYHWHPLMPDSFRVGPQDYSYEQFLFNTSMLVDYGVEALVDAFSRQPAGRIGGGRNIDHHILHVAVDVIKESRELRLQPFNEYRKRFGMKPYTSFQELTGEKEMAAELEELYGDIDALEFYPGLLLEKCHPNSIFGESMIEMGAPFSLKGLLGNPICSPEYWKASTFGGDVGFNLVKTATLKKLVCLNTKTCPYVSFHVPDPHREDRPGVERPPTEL
Source text: as §7

Phosphorus = assay: Serum and urine inorganic phosphorus levels in vivo; settings: Cf1 male mice, 8 mg/kg/day I.P. 14 days, N=6
Acid phosphatase [16] = assay: Human osteoporosis fibroblasts acid phosphatase activity; format: cell-based; settings: read-out: Acid Phosphatase IC50; Table X; human osteoporosis fibroblasts
Source text: as §6

Cathepsin [17] = assay: Human leukocyte cathepsin; format: cell-based; settings: read-out: Cathepsin IC50; Table XII; human leukocytes, 60 min incubation
Source text: 5. Human peripheral leukocytes, RPMI-1788
as §2

Trypsin [18] = assay: Human osteoporosis fibroblasts trypsin (BAEE) activity; format: cell-based; settings: read-out: Trypsin BAEE IC50; Table XI; human osteoporosis fibroblasts, 60 min incubation
Source text: 1. Trypsin- N-benzoyl-L-arginine ethyl ester pH 8.0, hydrolytic product 253 nm.

5'-lipoxygenase = biological target: T5, 5'-lipoxygenase (Mus musculus, UniProt P48999); assay: Mouse hepatic 5'-lipoxygenase activity; format: biochemical; settings: Table VI; mouse hepatic, 60 min incubation; read-out: 5'-lipoxygenase IC50
T5 construct: Cf1 male mouse hepatic 10% homogenates; from tissue; host or cells: CF1 male mouse liver, 10% homogenate
T5 sequence (P48999 1-674): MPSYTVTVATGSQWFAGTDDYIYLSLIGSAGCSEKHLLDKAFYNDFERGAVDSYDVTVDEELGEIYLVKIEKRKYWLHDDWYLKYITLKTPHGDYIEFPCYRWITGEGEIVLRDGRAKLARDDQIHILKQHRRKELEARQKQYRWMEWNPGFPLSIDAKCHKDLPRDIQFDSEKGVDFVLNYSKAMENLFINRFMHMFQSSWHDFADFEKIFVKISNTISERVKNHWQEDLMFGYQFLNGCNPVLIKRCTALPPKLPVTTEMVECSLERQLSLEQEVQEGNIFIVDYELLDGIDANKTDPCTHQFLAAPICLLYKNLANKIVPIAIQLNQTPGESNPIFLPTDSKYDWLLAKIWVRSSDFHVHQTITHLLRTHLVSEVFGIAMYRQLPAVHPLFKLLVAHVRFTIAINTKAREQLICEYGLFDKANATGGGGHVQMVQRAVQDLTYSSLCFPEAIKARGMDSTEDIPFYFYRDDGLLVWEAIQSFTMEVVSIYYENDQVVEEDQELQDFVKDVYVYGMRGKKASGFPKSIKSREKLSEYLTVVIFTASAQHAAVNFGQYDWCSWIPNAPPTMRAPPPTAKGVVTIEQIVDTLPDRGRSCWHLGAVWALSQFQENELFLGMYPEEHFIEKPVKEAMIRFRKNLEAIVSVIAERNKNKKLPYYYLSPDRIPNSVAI
Source text: as §3
5'-lipoxygenase Mylari, B.L., et al, J. Med.

Elastase [19] = assay: Human osteoporosis fibroblasts elastase activity; format: cell-based; settings: read-out: Elastase IC50; Table XI; human osteoporosis fibroblasts, 60 min incubation
Source text: as §8

[20] = tested on: Prostaglandin cyclooxygenase; assay: Human osteoporosis fibroblasts prostaglandin cyclooxygenase activity; format: cell-based; settings: read-out: Prostaglandin Cyclooxygense IC50, Table XI, 60 min incubation
Aryl sulphatase [21] = assay: Human osteoporosis fibroblasts aryl sulphatase activity; format: cell-based; settings: read-out: Aryl Sulphatase IC50; Table X; human osteoporosis fibroblasts
Source text: 3. Aryl sulphatase- p-nitrocatechol sulfate, pH
5. 8 p-nitro-catechol product 510 nm.

Cathepsin D [22] = biological target: T6, Cathepsin D (Homo sapiens, UniProt P07339); assay: Human osteoporosis fibroblasts cathepsin D (azo-casein) activity; format: cell-based; settings: Table X; human osteoporosis fibroblasts, DMEM +10% FCS + P/S; read-out: Cathepsin D IC50
T6 construct: azocasein assay pH 5.0
T6 sequence (P07339 65-412): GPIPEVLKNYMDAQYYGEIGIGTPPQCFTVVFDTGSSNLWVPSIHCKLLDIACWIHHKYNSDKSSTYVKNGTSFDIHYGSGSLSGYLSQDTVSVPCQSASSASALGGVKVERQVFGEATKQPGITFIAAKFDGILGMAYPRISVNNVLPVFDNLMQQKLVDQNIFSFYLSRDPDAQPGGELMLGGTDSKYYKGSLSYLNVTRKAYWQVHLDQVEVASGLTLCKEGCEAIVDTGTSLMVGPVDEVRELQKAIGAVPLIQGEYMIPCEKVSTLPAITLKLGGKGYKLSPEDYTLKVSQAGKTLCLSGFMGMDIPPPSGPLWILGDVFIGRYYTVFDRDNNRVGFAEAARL
Source text: Osteoporosis Human Fibroblast-CRL-1140, Be SA1

T1 sequence (P24268 65-407): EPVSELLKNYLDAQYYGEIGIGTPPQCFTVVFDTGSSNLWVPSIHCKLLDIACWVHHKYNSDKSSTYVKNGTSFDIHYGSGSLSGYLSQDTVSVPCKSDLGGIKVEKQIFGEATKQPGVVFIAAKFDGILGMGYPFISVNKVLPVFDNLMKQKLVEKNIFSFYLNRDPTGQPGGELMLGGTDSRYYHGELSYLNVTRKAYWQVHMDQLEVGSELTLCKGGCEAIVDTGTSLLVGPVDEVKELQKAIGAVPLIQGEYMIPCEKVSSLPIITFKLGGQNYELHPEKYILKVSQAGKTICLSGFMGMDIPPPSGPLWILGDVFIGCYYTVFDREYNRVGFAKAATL

C[N+](C)(C)[BH2-]C(=O)O [Compound 3, Trimethylamine-carboxyborane]
activity at 5 µM (Cathepsin [1]): 14%
IC50 (Elastase [2]; Table VIII; mouse macrophages, 60 min incubation; read-out: Elastase IC50): 2.14 µM
PMNs cAMP (cAMP): 99 % Control
activity at 5 µM (Cathepsin D [3]; pH 5, 5 × 10^-6 M, N=6, read-out: Mouse Liver Cathep.): 56%
IC50 (Cathepsin D [4]): 6.71 µM
IC50 (Aryl sulphatase [5]): 7.42 µM
LD50 at 336 h (in vivo): 1800 mg/kg
Rat PMNs Acid Phoph. (Acid phosphatase [6]): 50 + 3 % Control
IC50 ([7]; Table VIII; mouse macrophages, 60 min incubation; read-out: Prostaglandin Cyclooxygenase IC50): 2.81 µM
Anti-Inflammatory Activity Sprague Dawley Rats (Sprague Dawley Rats): 59 % Control
IC50 (Acid phosphatase [8]; Table VII; mouse macrophage cultured cells, 60 min incubation; read-out: Acid Phosphatase IC50): 1.04 µM
Writhing Reflex Cf1 Mice (Cf1 male mice [9]; Table IV, 8 mg/kg I.P.): 11.5 % Control
Anti-arthritic (Sprague Dawley male rats): 53 % Control
Anti-inflammatory (Cf1 male mice [10]; Table 1, drugs 8 or 10 mg/kg I.P. 2X, Indomethacin 10 mg/kg): 79 % Control
Anti-Inflammatory Activity Mice (Cf1 male mice [10]; Table IV, 8 mg/kg I.P.): 58 % Control
Hepatic Oxidative Phosphorylation Succinate State 3 [11]: 63 + 4 % Control
Hepatic Oxidative Phosphorylation Succinate State 4 [11]: 122 + 14 % Control
Hepatic Oxidative Phosphorylation alpha-Ketoglutrate State 3 [11]: 70 + 20 % Control
Hepatic Oxidative Phosphorylation alpha-Ketoglutrate State 4 [11]: 127 + 22 % Control
Mouse Liver Acid Phosph. (Acid phosphatase [12]): 82 + 5 % Control
Writhing (Cf1 male mice [13]): 29 % Control
IC50 (Trypsin [14]; Table VIII; mouse macrophages, 60 min incubation; read-out: Trypsin BAEE IC50): 2.78 µM

CCCCCCCCCCCCCCCCCC[N+](C)(C)[BH2-]C(=O)O [Compound 6, N,N-Dimethyloctadecylamine-carboxyborane]
IC50 [15]: 27.6 µM
Hydroxyproline serum (Hydroxyproline): 76.4 % Control
Hydroxyproline urine (Hydroxyproline): 60.6 % Control
Calcium serum (Calcium): 135.4 % Control
Calcium urine (Calcium): 64.4 % Control
IC50 (Prostaglandin synthetase): 1.92 µM
response vs control in vivo at 20 mg/kg (Cf1 male mice [9]; Mus musculus, ip, Table IV): 14.1%
Phosphorus serum (Phosphorus): 86.2 % Control
Phosphorus urine (Phosphorus): 65.4 % Control

[BH3-][NH+]1CCOCC1 [Compound 1, Morpholine-borane]
IC50 (Acid phosphatase [16]): 10.3 µM
IC50 [15]: 14.9 µM
IC50 (Elastase [2]; read-out: Elastase IC50; Table VIII; mouse macrophages, 60 min incubation): 5.94 µM
IC50 (Cathepsin D [3]; Table V, mouse hepatic, 60 min incubation, read-out: Cathepsin D IC50): 0.88 µM
IC50 (Cathepsin [17]): 72.8 µM
IC50 (Trypsin [18]): 7.88 µM
IC50 ([7]; read-out: Prostaglandin Cyclooxygenase IC50; Table VIII; mouse macrophages, 60 min incubation): 1.47 µM
IC50 (5'-lipoxygenase): 66.9 µM
IC50 (Prostaglandin synthetase): 2.36 µM
IC50 (Acid phosphatase [8]; read-out: Acid Phosphatase IC50; Table VII; mouse macrophage cultured cells, 60 min incubation): 3.18 µM
IC50 (Elastase [19]): 1.84 µM
response vs control in vivo (Cf1 male mice [9]; Mus musculus, ip, read-out: Writhing Reflex Cf1 Mice): 15.2%
IC50 [20]: 3.41 µM
IC50 (Aryl sulphatase [21]): 8.99 µM
IC50 (Cathepsin D [22]): 4.4 µM
IC50 (Trypsin [14]; read-out: Trypsin BAEE IC50; Table VIII; mouse macrophages, 60 min incubation): 2.39 µM

Reference: patent US5312816A, “Method of combatting osteoporosis in mammalian subjects, utilizing organic boron compounds” (priority 1993, dated 1994)
